Experimental data as given in US10093660B2, “Sulfoximine substituted quinazolines for pharmaceutical compositions” (EVOTEC INTERNATIONAL GMBH, priority 2013, dated 2018).

Legend:
MNK2a = MNK2a (Homo sapiens (Human), UniProt Q9HBH9); experiment: MNK2a in vitro kinase assay (Assay 2), ADP-Glo; type: biochemical; conditions: assay 2; read-out: MNK2 IC50
Excerpt: B. MNK2a In Vitro Kinase Assay (Assay 2)

MNK1a = MNK1a (Homo sapiens (Human), UniProt Q9BUB5); experiment: MNK1 in vitro kinase assay (Assay 3), Z'-LYTE; type: biochemical; conditions: for inhibition at 1 µM: read-out: MNK1 % INH
Excerpt: C. MNK1 In Vitro Kinase Assay (Assay 3)
MNK1 Data can be obtained from the MNK1 Z′-LYTE® assay. The MNK1 Z′-LYTE® screening protocol and assay conditions are also described on www.invitrogen.com.
The assay is described as follows:
The Z′-LYTE® biochemical assay employs a fluorescence-based, coupled-enzyme format and is based on the differential sensitivity of phosphorylated and non-phosphorylated peptides to proteolytic cleavage. The peptide substrate is labeled with two fluorophores—one at each end—that make up a FRET pair.
In the primary reaction, the kinase transfers the gamma-phosphate of ATP to a single tyrosine, serine or threonine residue in a synthetic FRET-peptide. In the secondary reaction, a site-specific protease recognizes and cleaves non-phosphorylated FRET-peptides. Phosphorylation of FRET-peptides suppresses cleavage by the Development Reagent. Cleavage disrupts FRET between the donor (i.e., coumarin) and acceptor (i.e., fluorescein) fluorophores on the FRET-peptide, whereas uncleaved, phosphorylated FRET-peptides maintain FRET. A ratiometric method, which calculates the ratio (the Emission Ratio) of donor emission to acceptor emission after excitation of the donor fluorophore at 400 nm, is used to quantitate reaction progress, as shown in the equation below.
The 2×MKNK1 (MNK1) mixture is prepared in 50 mM HEPES pH 7.5, 0.01% BRIJ-35, 10 mM MgCl2, 4 mM MnCl2, 1 mM EGTA, 2 mM DTT.
The Test Compounds are screened in 1% DMSO (final) in the well.
All Peptide/Kinase Mixtures are diluted to a 2× working concentration in the MNK1 Kinase Buffer.
All ATP Solutions are diluted to a 4× working concentration in Kinase Buffer (50 mM HEPES pH 7.5, 0.01% BRIJ-35, 10 mM MgCl2, 1 mM EGTA).
Development Reagent Solution:
The Development Reagent is diluted in Development Buffer
1. 2.5 μL—4× Test Compound
2. 5 μL—2× Peptide/Kinase Mixture
5. 60-minute Kinase Reaction incubation at room temperature
6. 5 μL—Development Reagent Solution
8. 60-minute Development Reaction incubation at room temperature
9. Read on fluorescence plate reader and analyze the data
Control C0%=Average Coumarin emission signal of the 0% Phos. Control F100%=Average Fluorescein emission signal of the 100% Phos. Control F0%=Average Fluorescein emission signal of the 0% Phos. Control Graphing Software
SelectScreen® Kinase Profiling Service uses XLfit from IDBS. […] The activity of MNK proteins can be assayed also by other in vitro kinase assay formats. […] In general, MNK kinase assays can be performed such that a MNK substrate such as a protein or a peptide, which may or may not include modifications as further described below, or others are phosphorylated by MNK proteins having enzymatic activity in vitro. The activity of a candidate agent can then be determined via its ability to decrease the enzymatic activity of the MNK protein. The kinase activity may be detected by change of the chemical, physical or immunological properties of the substrate due to phosphorylation.

MNK2a, sequence (Q9HBH9 whole entry): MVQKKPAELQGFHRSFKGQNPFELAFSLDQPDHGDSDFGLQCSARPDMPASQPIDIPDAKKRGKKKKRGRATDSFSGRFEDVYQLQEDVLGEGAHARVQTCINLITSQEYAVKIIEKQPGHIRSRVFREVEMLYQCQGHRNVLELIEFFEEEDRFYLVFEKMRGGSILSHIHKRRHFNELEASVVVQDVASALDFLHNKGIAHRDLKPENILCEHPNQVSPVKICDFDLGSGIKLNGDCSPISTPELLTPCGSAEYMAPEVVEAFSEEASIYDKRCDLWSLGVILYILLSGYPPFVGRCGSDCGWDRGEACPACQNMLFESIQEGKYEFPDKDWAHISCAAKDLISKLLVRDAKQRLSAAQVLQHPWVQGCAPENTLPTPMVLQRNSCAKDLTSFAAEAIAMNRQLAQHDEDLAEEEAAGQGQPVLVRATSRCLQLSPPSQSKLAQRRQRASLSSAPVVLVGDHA
MNK1a, sequence (Q9BUB5 other isoform, or with tags, fused parts or gaps): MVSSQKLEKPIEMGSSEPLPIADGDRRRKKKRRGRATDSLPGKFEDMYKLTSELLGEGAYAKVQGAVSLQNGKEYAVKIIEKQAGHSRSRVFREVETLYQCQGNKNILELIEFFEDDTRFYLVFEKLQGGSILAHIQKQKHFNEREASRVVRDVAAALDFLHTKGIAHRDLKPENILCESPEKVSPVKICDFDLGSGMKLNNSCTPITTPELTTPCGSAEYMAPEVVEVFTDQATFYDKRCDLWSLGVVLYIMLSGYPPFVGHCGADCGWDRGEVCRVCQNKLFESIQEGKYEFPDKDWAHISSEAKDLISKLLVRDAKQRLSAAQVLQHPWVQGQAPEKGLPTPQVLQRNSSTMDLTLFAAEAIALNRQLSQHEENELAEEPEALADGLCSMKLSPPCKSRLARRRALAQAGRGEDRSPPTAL

| Compound | IC50 (MNK2a) | inhibition at 1 µM (MNK1a; compound concentration of 1 μM) | IC50 (MNK1a) | MNK1 % INH (MNK1a; compound concentration of 1 μM) |
| --- | --- | --- | --- | --- |
| COc1cc(N=S2(=O)CCCC2)cc2ncnc(Nc3cccnc3O[C@H]3COC[C@H]3O)c12 (racemic) [Example 8.5] | 21 nM | 97% | – | – |
| Cc1cc(N=S2(=O)CCC2)cc2ncnc(Nc3ccc(Cl)cc3O[C@H]3COC[C@@H]3O)c12 [Example 1.29] | 2 nM | 100% | – | – |
| CS(C)(=O)=Nc1cc(OC(F)F)c2c(Nc3ccc(F)cc3O[C@H]3COC[C@@H]3O)ncnc2c1 [Example 1.11] | 32 nM | 64% | – | – |
| Cc1cc(N=S(C)(C)=O)cc2ncnc(Nc3ccc(F)cc3O[C@H]3COC[C@H]3OCCF)c12 (racemic) [Example 10.2] | 2 nM | 93% | – | – |
| COc1cc(N=S2(=O)CCC2)cc2ncnc(Nc3ccc(F)cc3O[C@H]3COC[C@H]3O)c12 (racemic) [Example 9.16] | 7 nM | 98% | – | – |
| CC1CCS(=O)(=Nc2cc(F)c3c(Nc4ccc(F)cc4O[C@H]4COC[C@@H]4O)ncnc3c2)C1 (stereo partly drawn) [Example 2.80] | 4 nM | 96% | – | – |
| CO[C@@H]1CN(S(C)(=O)=O)C[C@H]1Oc1ncccc1Nc1ncnc2cc(N=S3(=O)CCCC3)cc(C)c12 [Example 6.5] | 28 nM | 60% | – | – |
| COc1cc(N=S(C)(C)=O)cc2ncnc(Nc3ccc(Cl)nc3O[C@H]3COC[C@@H]3O)c12 [Example 8.2] | 3 nM | 100% | – | – |
| CO[C@@H]1COC[C@@H]1Oc1ncccc1Nc1ncnc2cc(N=S3(=O)CCCC3)cc(C)c12 (single isomer, unassigned) [Example 14.2] | 10 nM | 86% | – | – |
| CS(C)(=O)=Nc1cc(F)c2c(Nc3ccc(F)cc3O[C@H]3COC[C@@H]3O)ncnc2c1 [Example 2.55] | 3 nM | 91% | – | – |
| Cc1cc(N=S(C)(C)=O)cc2ncnc(Nc3cccnc3O[C@H]3COC[C@@H]3O)c12 [Example 2.28] | 11 nM | 85% | – | – |
| O=S1(=Nc2cc(Cl)c3c(Nc4ccc(F)cc4O[C@H]4COC[C@H]4O)ncnc3c2)CCC1 (single isomer, unassigned) [Example 1.35] | 1 nM | – | 25 nM | – |
| Cc1cc(N=S(C)(C)=O)cc2ncnc(Nc3ccc(F)cc3O[C@H]3COC[C@@H]3O)c12 [Example 2.27] | – | 97% | – | – |
| Cc1cc(N=S2(=O)CCCCC2)cc2ncnc(Nc3cccnc3O[C@H]3COC[C@H]3O)c12 (racemic) [Example 2.31] | – | 94% | – | – |
| CO[C@@H]1COC[C@H]1Oc1ncccc1Nc1ncnc2cc(N=S3(=O)CCC3)cc(C)c12 (racemic) [Example 2.35] | – | 97% | – | – |
| CO[C@@H]1COC[C@H]1Oc1ncccc1Nc1ncnc2cc(N=S(C)(C)=O)cc(C)c12 (racemic) [Example 2.34] | – | 70% | – | – |
| Cc1cc(N=S2(=O)CCC2)cc2ncnc(Nc3ccc(F)cc3O[C@@H]3COC[C@@H]3O)c12 (racemic) [Example 2.67] | – | 100% | – | – |
| Cc1cc(N=S2(=O)CCC2)cc2ncnc(Nc3cccnc3O[C@@H]3COC[C@H]3O)c12 [Example 2.49] | – | 94% | – | – |
| Cc1cc(N=S(C)(C)=O)cc2ncnc(Nc3ccc(F)cc3O[C@H]3COC[C@@H]3O)c12 [Example 2.45] | – | – | 92 nM | 92% |
| Cc1cc(N=S2(=O)CCCC2)cc2ncnc(Nc3ccc(F)cc3O[C@H]3CNC[C@@H]3O)c12 [Example 3.6] | – | 98% | – | – |
| O=S1(=Nc2cc(F)c3c(Nc4cccnc4O[C@H]4COC[C@H]4O)ncnc3c2)CCC1 (racemic) [Example 2.33] | – | 91% | – | – |
| Cc1cc(N=S(C)(=O)C2CC2)cc2ncnc(Nc3ccc(F)cc3O[C@@H]3COC[C@@H]3O)c12 (mixture of isomers) [Example 2.72] | – | 98% | – | – |
| CO[C@@H]1CC[C@@H](Oc2cc(F)ccc2Nc2ncnc3cc(N=S(C)(C)=O)cc(C)c23)CO1 (racemic) [Example 2.63] | – | 102% | – | – |
